Laboratory results reported in PubChem BioAssay AID330 (DTP/NCI, 2004).
Several values for one entry are separate records, joined by “and”; a condition that tells them apart may be missing. Equal values may be shown once. Inconclusive results and toxic doses are left out.

Tested on: P388 leukemia ip, CD2F1 mice, survival T/C
Assay: NCI In Vivo Anticancer Drug Screen. Data for tumor model P388 Leukemia (intraperitoneal) in CD2F1 (CDF1) mice
Conditions: endpoint: median survival time, higher = longer survival
Method in brief: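 Mice carrying the transplanted tumor received test compound or vehicle. Survival was recorded in each group, and the value is the treated-group measurement divided by that of the vehicle-treated control group.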

[1] = dose: 12.5 mg/kg/injection, schedule: Q01DX005 (ip), vehicle: saline with Tween-80
[2] = dose: 25.0 mg/kg/injection, schedule: Q01DX005 (ip), vehicle: saline with Tween-80
[3] = dose: 50.0 mg/kg/injection, schedule: Q01DX005 (ip), vehicle: saline with Tween-80
[4] = dose: 50.0 mg/kg/injection, schedule: Q01DX009 (ip), vehicle: Klucel (hydroxypropylcellulose) (HPC)
[5] = dose: 100.0 mg/kg/injection, schedule: Q01DX009 (ip), vehicle: Klucel (hydroxypropylcellulose) (HPC)
[6] = dose: 100.0 mg/kg/injection, schedule: Q01DX005 (ip), vehicle: saline with Tween-80
[7] = dose: 50.0 mg/kg/injection, schedule: Q01DX005 (ip), vehicle: Klucel (hydroxypropylcellulose) (HPC)
[8] = dose: 100.0 mg/kg/injection, schedule: Q01DX005 (ip), vehicle: Klucel (hydroxypropylcellulose) (HPC)
[9] = dose: 200.0 mg/kg/injection, schedule: Q01DX005 (ip), vehicle: Klucel (hydroxypropylcellulose) (HPC)
[10] = dose: 200.0 mg/kg/injection, schedule: Q01DX009 (ip), vehicle: Klucel (hydroxypropylcellulose) (HPC)

N#CN=CN1CC2CCC(CC2)C1
T/C (dose: 3.13 mg/kg/injection, schedule: Q01DX009 (ip), vehicle: saline): 98 % of control
T/C (dose: 6.25 mg/kg/injection, schedule: Q01DX009 (ip), vehicle: saline): 102 % of control
T/C (dose: 12.5 mg/kg/injection, schedule: Q01DX009 (ip), vehicle: saline): 92 % of control

O=C(NCC(O)CNC(=O)Nc1ccc(C2=NCC(O)CN2)cc1)Nc1ccc(C2=NCC(O)CN2)cc1 (stereo not given)
T/C [1]: 95 % of control
T/C [2]: 100 % of control
T/C [3]: 109 % of control and 97 % of control

COC(=O)C1=CCC23CC[C@H](C(C)(/C=C/C=C(\C)C(=O)O)OC2=O)[C@]3(O)CC1 (stereo not given in full)
T/C (dose: 3.88 mg/kg/injection, schedule: Q01DX005 (ip), vehicle: sodium bicarbonate): 87 % of control
T/C (dose: 7.75 mg/kg/injection, schedule: Q01DX005 (ip), vehicle: sodium bicarbonate): 100 % of control
T/C (dose: 15.5 mg/kg/injection, schedule: Q01DX005 (ip), vehicle: sodium bicarbonate): 103 % of control
T/C (dose: 31.0 mg/kg/injection, schedule: Q01DX005 (ip), vehicle: sodium bicarbonate): 108 % of control

CC1=CC2ON=C(c3c(C)cc(C)cc3C)N2N(C(=O)c2ccccc2)C=C1 (stereo not given)
T/C (dose: 50.0 mg/kg/injection, schedule: Q01DX009 (ip), vehicle: saline): 102 % of control
T/C (dose: 100.0 mg/kg/injection, schedule: Q01DX009 (ip), vehicle: saline): 93 % of control
T/C (dose: 200.0 mg/kg/injection, schedule: Q01DX009 (ip), vehicle: saline): 93 % of control

COc1cccc(C(=O)NC[n+]2ccccc2)c1
T/C (dose: 25.0 mg/kg/injection, schedule: Q04DX003 (ip), vehicle: saline): 100 % of control
T/C (dose: 50.0 mg/kg/injection, schedule: Q04DX003 (ip), vehicle: saline): 100 % of control
T/C (dose: 100.0 mg/kg/injection, schedule: Q04DX003 (ip), vehicle: saline): 109 % of control

O=C(N1CCCCCC1)N1CC1
T/C [4]: 93 % of control
T/C [5]: 118 % of control

C1CCN(CCC[Si]23OCCN(CCO2)CCO3)C1
T/C [3]: 108 % of control
T/C [6]: 108 % of control
T/C (dose: 200.0 mg/kg/injection, schedule: Q01DX005 (ip), vehicle: saline with Tween-80): 109 % of control

OCc1c(-c2ccc(Cl)cc2)c(-c2ccc(F)cc2)c2n1CCC2
T/C [7]: 98 % of control
T/C [8]: 100 % of control
T/C [9]: 103 % of control

COC(=O)CC1(C(=O)OC)C2=C(CCC2)N2CCCC21 (stereo not given)
T/C (dose: 12.5 mg/kg/injection, schedule: Q01DX009 (ip), vehicle: Klucel (hydroxypropylcellulose) (HPC)): 101 % of control
T/C (dose: 25.0 mg/kg/injection, schedule: Q01DX009 (ip), vehicle: Klucel (hydroxypropylcellulose) (HPC)): 103 % of control
T/C [4]: 97 % of control
T/C [5]: 93 % of control

CCCC[P+](CCCC)(CCCC)CCN1C(=O)c2ccccc2C1=O
T/C (dose: 0.78 mg/kg/injection, schedule: Q01DX009 (ip), vehicle: water): 92 % of control
T/C (dose: 1.56 mg/kg/injection, schedule: Q01DX009 (ip), vehicle: water): 93 % of control
T/C (dose: 3.13 mg/kg/injection, schedule: Q01DX009 (ip), vehicle: water): 106 % of control
T/C (dose: 6.25 mg/kg/injection, schedule: Q01DX009 (ip), vehicle: water): 99 % of control
T/C (dose: 12.5 mg/kg/injection, schedule: Q01DX009 (ip), vehicle: water): 100 % of control
T/C (dose: 25.0 mg/kg/injection, schedule: Q01DX009 (ip), vehicle: water): 100 % of control and 101 % of control
T/C (dose: 50.0 mg/kg/injection, schedule: Q01DX009 (ip), vehicle: water): 106 % of control
T/C (dose: 100.0 mg/kg/injection, schedule: Q01DX009 (ip), vehicle: water): 116 % of control

C#CCOc1ccccc1/C(Cl)=N/Nc1ccc([N+](=O)[O-])cc1[N+](=O)[O-]
T/C (dose: 6.25 mg/kg/injection, schedule: Q01DX009 (ip), vehicle: saline with Tween-80): 97 % of control
T/C (dose: 25.0 mg/kg/injection, schedule: Q01DX009 (ip), vehicle: saline with Tween-80): 90 % of control

CC/C(=N\NC(=S)SC)c1ccccn1
T/C (dose: 6.25 mg/kg/injection, schedule: Q01DX005 (ip), vehicle: saline with Tween-80): 106 % of control
T/C [1]: 94 % of control and 96 % of control and 97 % of control
T/C [2]: 105 % of control and 110 % of control and 94 % of control

COc1cc([N+](=O)[O-])ccc1N=Cc1ccc(C=Nc2ccc([N+](=O)[O-])cc2OC)cc1
T/C [4]: 95 % of control and 96 % of control
T/C [5]: 86 % of control and 96 % of control
T/C [10]: 96 % of control

O=C(/C(O)=C(\O)C(=O)N(C1CCCCC1)C1CCCCC1)N(C1CCCCC1)C1CCCCC1
T/C (dose: 25.0 mg/kg/injection, schedule: Q01DX005 (ip), vehicle: Klucel (hydroxypropylcellulose) (HPC)): 100 % of control
T/C [7]: 96 % of control
T/C [8]: 100 % of control
T/C [9]: 92 % of control

CC(C)=NNC(=O)CNc1cccc(C(F)(F)F)c1
T/C (dose: 60.0 mg/kg/injection, schedule: Q01DX005 (ip), vehicle: saline with Tween-80): 97 % of control
T/C (dose: 120.0 mg/kg/injection, schedule: Q01DX005 (ip), vehicle: saline with Tween-80): 100 % of control
T/C (dose: 240.0 mg/kg/injection, schedule: Q01DX005 (ip), vehicle: saline with Tween-80): 106 % of control

CC1=C(C)[CH2][Ge]([CH3])([CH3])[CH2]1
T/C (dose: 60.0 mg/kg/injection, schedule: Q01DX005 (ip), vehicle: saline): 98 % of control
T/C (dose: 120.0 mg/kg/injection, schedule: Q01DX005 (ip), vehicle: saline): 104 % of control
T/C (dose: 240.0 mg/kg/injection, schedule: Q01DX005 (ip), vehicle: saline): 97 % of control

Cc1cc(N/N=C/c2cccnc2)c2ccccc2n1
T/C [4]: 94 % of control
T/C [5]: 100 % of control
T/C [10]: 98 % of control

CCOC(=O)c1c(SCC)c(C=C(C(C)=O)C(C)=O)c2ccccn12
T/C (dose: 100.0 mg/kg/injection, schedule: Q01DX001 (ip), vehicle: saline with Tween-80): 99 % of control
T/C (dose: 200.0 mg/kg/injection, schedule: Q01DX001 (ip), vehicle: saline with Tween-80): 95 % of control
T/C (dose: 400.0 mg/kg/injection, schedule: Q01DX001 (ip), vehicle: saline with Tween-80): 89 % of control

CC1(Cl)C(=O)OC2CCC(O)C(O)C21 (stereo not given)
T/C (dose: 100.0 mg/kg/injection, schedule: Q04DX003 (ip), vehicle: Klucel (hydroxypropylcellulose) (HPC)): 101 % of control
T/C (dose: 200.0 mg/kg/injection, schedule: Q04DX003 (ip), vehicle: Klucel (hydroxypropylcellulose) (HPC)): 102 % of control
T/C (dose: 400.0 mg/kg/injection, schedule: Q04DX003 (ip), vehicle: Klucel (hydroxypropylcellulose) (HPC)): 106 % of control

CCCCC(CC)CN1CN(CC(CC)CCCC)CC(C)(N)C1 (stereo not given)
T/C [3]: 100 % of control
T/C [6]: 98 % of control

Nc1ccc2c(NCCCCCCCCNc3c4ccccc4nc4cc(N)ccc34)c3ccccc3nc2c1
T/C (dose: 1.25 mg/kg/injection, schedule: Q01DX009 (ip), vehicle: other): 158 % of control
T/C (dose: 2.5 mg/kg/injection, schedule: Q01DX009 (ip), vehicle: other): 150 % of control
T/C (dose: 5.0 mg/kg/injection, schedule: Q01DX009 (ip), vehicle: other): 151 % of control

NSc1ccc([N+](=O)[O-])cc1
T/C (dose: 25.0 mg/kg/injection, schedule: Q01DX001 (ip), vehicle: other): 109 % of control
T/C (dose: 50.0 mg/kg/injection, schedule: Q01DX001 (ip), vehicle: other): 100 % of control

O=S(=O)(c1ccccc1)N1OC1c1ccccc1 (stereo not given)
T/C (dose: 50.0 mg/kg/injection, schedule: Q01DX009 (ip), vehicle: saline with Tween-80): 100 % of control
T/C (dose: 60.0 mg/kg/injection, schedule: Q01DX005 (ip), vehicle: Klucel (hydroxypropylcellulose) (HPC)): 104 % of control
T/C (dose: 100.0 mg/kg/injection, schedule: Q01DX009 (ip), vehicle: saline with Tween-80): 86 % of control
T/C (dose: 120.0 mg/kg/injection, schedule: Q01DX005 (ip), vehicle: Klucel (hydroxypropylcellulose) (HPC)): 104 % of control
T/C (dose: 240.0 mg/kg/injection, schedule: Q01DX005 (ip), vehicle: Klucel (hydroxypropylcellulose) (HPC)): 99 % of control
